PubChem BioAssay AID330 (DTP/NCI, 2004)
“And” between values parts separate entries of the source, which are not always exact repeats. Identical values can stand only once. Inconclusive results and toxic doses are left out. The calls were made as follows: active = survival T/C of 150% or more; inactive = T/C below 125% in these data.

Test system: P388 leukemia ip, CD2F1 mice, survival T/C
Assay: NCI In Vivo Anticancer Drug Screen. Data for tumor model P388 Leukemia (intraperitoneal) in CD2F1 (CDF1) mice
Conditions: endpoint: median survival time, higher = longer survival
Summary of the method: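 Mice carrying the transplanted tumor received test compound or vehicle. Survival was recorded in each group, and the value is the treated-group measurement divided by that of the vehicle-treated control group.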

[1] = dose: 50.0 mg/kg/injection, schedule: Q01DX005 (ip), vehicle: Klucel (hydroxypropylcellulose) (HPC)
[2] = dose: 100.0 mg/kg/injection, schedule: Q01DX005 (ip), vehicle: Klucel (hydroxypropylcellulose) (HPC)
[3] = dose: 200.0 mg/kg/injection, schedule: Q01DX005 (ip), vehicle: Klucel (hydroxypropylcellulose) (HPC)
[4] = dose: 25.0 mg/kg/injection, schedule: Q04DX002 (ip), vehicle: saline with Tween-80
[5] = dose: 50.0 mg/kg/injection, schedule: Q04DX002 (ip), vehicle: saline with Tween-80
[6] = dose: 100.0 mg/kg/injection, schedule: Q04DX002 (ip), vehicle: saline with Tween-80

Measured: T/C

CC1(C)CCCC2(C)C1CCC1(C)OC(/C(C=O)=C/C=O)CC12 (stereo not drawn)
inactive: dose: 40.0 mg/kg/injection, schedule: Q01DX009 (ip), vehicle: Klucel (hydroxypropylcellulose) (HPC) 112 % of control | dose: 80.0 mg/kg/injection, schedule: Q01DX009 (ip), vehicle: Klucel (hydroxypropylcellulose) (HPC) 105 % of control

C=C(CBr)C(=O)OCC
inactive: dose: 7.5 mg/kg/injection, schedule: Q01DX005 (ip), vehicle: saline with Tween-80 103 % of control | dose: 15.0 mg/kg/injection, schedule: Q01DX005 (ip), vehicle: saline with Tween-80 88 % of control | dose: 30.0 mg/kg/injection, schedule: Q01DX005 (ip), vehicle: saline with Tween-80 103 % of control

CC(=O)NCC1CC2(Cl)C(Cl)=C(Cl)C1(Cl)C2(Cl)Cl (stereo not drawn)
inactive: [1] 101 % of control | [2] 106 % of control | [3] 106 % of control

CN(C)C(OCCCC(=O)O)C(Cl)(Cl)Cl (stereo not drawn)
inactive: dose: 50.0 mg/kg/injection, schedule: Q01DX009 (ip), vehicle: Klucel (hydroxypropylcellulose) (HPC) 113 % of control | dose: 100.0 mg/kg/injection, schedule: Q01DX009 (ip), vehicle: Klucel (hydroxypropylcellulose) (HPC) 96 % of control | dose: 200.0 mg/kg/injection, schedule: Q01DX009 (ip), vehicle: Klucel (hydroxypropylcellulose) (HPC) 109 % of control

Cc1ccc(C2CNC(=S)S2)cc1 (stereo not drawn)
inactive: dose: 50.0 mg/kg/injection, schedule: Q01DX009 (ip), vehicle: DMSO 92 % of control | dose: 100.0 mg/kg/injection, schedule: Q01DX009 (ip), vehicle: DMSO 98 % of control | dose: 200.0 mg/kg/injection, schedule: Q01DX009 (ip), vehicle: DMSO 98 % of control

COC(=O)C12OCC34C(CC5C(C)=C(O)C(=O)CC5(C)C3C(O)C1O)OC(=O)C(OC(=O)N(C)[Si](C)(C)C(C)(C)C)C24 (stereo not drawn)
inactive: dose: 125.0 micrograms/kg/injection, schedule: Q01DX005 (ip), vehicle: Klucel (hydroxypropylcellulose) (HPC) 101 % of control | dose: 250.0 micrograms/kg/injection, schedule: Q01DX005 (ip), vehicle: Klucel (hydroxypropylcellulose) (HPC) 95 % of control | dose: 500.0 micrograms/kg/injection, schedule: Q01DX005 (ip), vehicle: Klucel (hydroxypropylcellulose) (HPC) 96 % of control | dose: 1000.0 micrograms/kg/injection, schedule: Q01DX005 (ip), vehicle: Klucel (hydroxypropylcellulose) (HPC) 95 % of control

O=C(S)CC1(O)CCCCC12OC2c1ccccc1 (stereo not drawn)
inactive: dose: 100.0 mg/kg/injection, schedule: Q01DX001 (ip), vehicle: Klucel (hydroxypropylcellulose) (HPC) 99 % of control | dose: 200.0 mg/kg/injection, schedule: Q01DX001 (ip), vehicle: Klucel (hydroxypropylcellulose) (HPC) 104 % of control | dose: 400.0 mg/kg/injection, schedule: Q01DX001 (ip), vehicle: Klucel (hydroxypropylcellulose) (HPC) 103 % of control

O=C(CS(=O)(=O)O)c1ccccc1
inactive: [4] 100 % of control | [5] 106 % of control | [6] 94 % of control and 97 % of control

CC(NC(=O)c1ccc(Cl)cc1Cl)c1ccccc1 (stereo not drawn)
inactive: dose: 50.0 mg/kg/injection, schedule: Q01DX001 (ip), vehicle: other 98 % of control | dose: 100.0 mg/kg/injection, schedule: Q01DX001 (ip), vehicle: other 97 % of control | dose: 200.0 mg/kg/injection, schedule: Q01DX001 (ip), vehicle: other 96 % of control | dose: 400.0 mg/kg/injection, schedule: Q01DX001 (ip), vehicle: other 94 % of control

CSC(=S)/C=C1\SC=CN1C
inactive: [4] 96 % of control | [5] 100 % of control | [6] 100 % of control

O=C1c2ccccc2C(=O)N1c1ccccc1Br
inactive: [1] 100 % of control | [2] 97 % of control | [3] 101 % of control

CC1=CC[C@@H]2[C@@H](CC[C@@]2(C)O)C(C)(C)[C@H]1CC[C@@H]1[C@@]2(C)CC[C@@H](O)C(C)(C)O[C@@H]2CC[C@]1(C)O
inactive: dose: 8.0 mg/kg/injection, schedule: Q01DX005 (ip), vehicle: saline + Tween-80 + alcohol 103 % of control | dose: 16.0 mg/kg/injection, schedule: Q01DX005 (ip), vehicle: saline + Tween-80 + alcohol 103 % of control | dose: 32.0 mg/kg/injection, schedule: Q01DX005 (ip), vehicle: saline + Tween-80 + alcohol 97 % of control | dose: 64.0 mg/kg/injection, schedule: Q01DX005 (ip), vehicle: saline + Tween-80 + alcohol 96 % of control
